Laboratory results taken from patent EP0501375A1 (priority 1991, dated 1992).
*1 amine or outer side, *2 acyl side, *3 side chain or, on linkers, in order; H or OH if unused. Where a SMILES comes first, the peptide text is derived from it. CO = O=C([*:1])[*:2]

Columns and labels:
alkaline protease K-16 [1] = molecular target: T1, alkaline protease K-16 (Shouchella clausii, UniProt Q99405); assay: Effects of metal ions on protease activity; type: biochemical, Bacillus sp. KSM-K16; details: metal salt 1 mM; for Residual Activity: pH 9.5, 30°C for 20 minutes, relative to no metal salt; for effect on activity of the alkaline protease K-16 (in words): 30°C for 20 minutes
Method: A 1 ml portion of 50 mM boric acid-NaOH buffer (pH 10) containing 1% casein was mixed with 0.1 ml of enzyme solution, and the mixture was incubated at 40°C for 10 minutes. The reaction was stopped by adding 2 ml of a solution containing 0.123 M trichloroacetic acid, 0.246 M sodium acetate and 0.369 M acetic acid. After allowing to stand at 30°C for 20 minutes, the resulting mixture was filtered through a filter paper (manufactured by Whatman; No. 2), and the filtrate was checked for its contents of proteolytic products in accordance with the modified Folin-Lowry method. One unit of activity (1 P.U.) was defined as the amount of enzyme which produces 1 mmole of tyrosine per minute.
Effects of various metal ions on the activity of the alkaline protease K-16 were examined. A 20 mM boric acid-NaOH buffer (pH 9.5) solution containing 1 mM of a metal salt was mixed with 3.9 x 10⁻³ P.U. of the alkaline protease K-16, and the mixture was maintained at 30°C for 20 minutes. Thereafter, the thus treated mixture was diluted with 50 mM boric acid-NaOH buffer (pH 10.0) by a factor of 5 to measure residual activity which was then calculated as relative value based on the activity measured in the same manner in the absence of metal salts. […] Also, as is evident from the results described in the foregoing items (5) and (6), thermal stability of this enzyme is improved in the presence of Ca²⁺ TABLE 3

alkaline protease K-16 [2] = molecular target: T1, alkaline protease K-16; assay: biochemical; type: biochemical, Bacillus sp. KSM-K16

T1 sequence (Q99405 112-380): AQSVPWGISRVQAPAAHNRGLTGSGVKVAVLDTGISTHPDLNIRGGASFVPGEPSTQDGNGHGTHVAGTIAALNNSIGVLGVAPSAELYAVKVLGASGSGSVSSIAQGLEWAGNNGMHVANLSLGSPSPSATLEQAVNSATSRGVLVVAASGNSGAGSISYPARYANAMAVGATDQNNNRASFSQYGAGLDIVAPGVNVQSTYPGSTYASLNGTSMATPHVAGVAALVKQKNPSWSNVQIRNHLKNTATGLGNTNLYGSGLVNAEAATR

SMILES | Residual Activity (alkaline protease K-16 [1]) | also measured
O=[N+]([O-])[O-].[Ag+] [AgNO₃] | 86% | 
CC(C)[C@H](NC(=O)[C@H](CCCNC(=N)N)NC(=O)N[C@@H](Cc1ccccc1)C(=O)O)C(=O)N[C@H](C=O)CCCNC(=N)N [Antipain] ({Phe-CO}-Arg-Val-Arg-aldehyde) |  | Residual Activity (alkaline protease K-16 [2]; pH 7): 108%
[Ca+2].[Cl-].[Cl-] [CaCl₂] | 103% | 
CC(C)C[C@H](NC(=O)[C@@H](NC(=O)N[C@@H](Cc1ccccc1)C(=O)O)[C@@H]1CCN=C(N)N1)C(=O)N[C@H](C=O)Cc1ccccc1 [Chymostatin] |  | Residual Activity (alkaline protease K-16 [2]; pH 7): 34%; effect on activity of the alkaline protease K-16 (in words) (alkaline protease K-16 [2]; pH 7): inhibited
[Cl-].[Cl-].[Co+2] [CoCl₂] | 103% | 
O=S(=O)([O-])[O-].[Cu+2] [CuSO₄] | 73% | effect on activity of the alkaline protease K-16 (in words) (alkaline protease K-16 [1]): inhibited
O=C(O)CN(CCN(CC(=O)O)CC(=O)O)CC(=O)O [EDTA] |  | remaining activity at 5000 µM (alkaline protease K-16 [2]; pH 7, read-out: Residual Activity): 107%
[Cl][Hg][Cl] [HgCl₂] | 46% | effect on activity of the alkaline protease K-16 (in words) (alkaline protease K-16 [1]): inhibited
[Cl][Ni][Cl] [NiCl₂] | 103% | 
[Cl][Pb][Cl] [PbCl₂] | 100% | 
[Cl-].[Cl-].[Zn+2] [ZnCl₂] | 106% | 
